Measurements: patent US8461305B2, “L-fucose α1→6 specific lectin” (J-Oil Mills, Inc., priority 2008, dated 2013)

Assay: frontal affinity chromatography (FAC), association constant to PA sugar chains without L-fucose
Type: binding
Conditions: 25 degrees C.
Description: The following section will describe a method of calculating an association constant by frontal affinity chromatography (FAC). This method is based on the following principle. […] Then, the elution front end (front) is observed immediately. When there is an affinity with lectin, the elution of the sugar chain is delayed.
The preparation of a lectin column used in the apparatus is performed in the method as described below. 1. Purified lectin is dissolved in 0.1 to 0.2M of NaHCO3 buffer solution (pH 8.3 to 8.5). 2. The lectin is immobilized, via a lectin primary amino group, a carrier such as NHS activated sepharose. 3. Then, the lectin is blocked by Tris buffer solution including primary amine or ethanolamine for example. 4. Lectin-sepharose is suspended in 10 mM Tris buffer, including 0.8% of NaCl (pH 7.4, TBS). Then, lectin immobilized resin is filled in a miniature column (φ2 mm×10 mm, 31.4 μl). 5. The miniature column in which the lectin immobilized resin is filled is protected by a holder and the lectin column is connected to an FAC automatic analysis apparatus (FAC-1, SHIMADZU CORPORATION).
Then, the elution of the PA sugar chain from the column is detected by a fluorescence detector (excitation wavelength/fluorescence wavelength: 310 nm/380 nm).
Based on the detection data, by using the elution front end (Vo) of the sugar chain (PA rhamnose) not interacting with lectin as a reference, the delay (V−Vo) of the elution front end (V) of a sugar chain interacting with lectin is calculated as an interaction strength. Then, based on the following FAC criteria expressions, the association constant (Ka) between the sugar chain and lectin is calculated based on V−Vo and Bt. If the interaction strength (V−Vo value) and the association constant are higher, a higher affinity is caused between lectin and an L-fucose α1→6 sugar chain.
[In the formula, A means substance used for the elution, Ao means the initial concentration of the substance A, B means a immobilized ligand, V means the elution volume, Vo means the elution front end volume of the substance not interacting with the immobilized ligand B at all, Bt means an effective ligand amount, Kd means a dissociation constant (an inverse of the association constant)].
Pyridylaminated (PA) sugar chains shown in FIG. 1 and FIG. 2 were used to frontal affinity chromatography (FAC) analysis. PA sugars were purchased from TAKARA BIO INC., SEIKAGAKU BIOBUSINESS CORPORATION, and Masuda Chemical Industries co., LTD. PA sugar were also obtained by pyridylaminating, by GlycoTAG®(TAKARA BIO INC.), an unlabeled sugar chain or a sugar chain obtained by subjecting a sugar chain to enzyme digestion for example.
Lectin was dissolved in 0.2 M NaHCO3 buffer solution (pH 8.3) including 0.5 M NaCl and coupled to the NHS-activated sepharose (GE Healthcare Bioscience) by following the manufacturer's instructions. Then, lectin immobilized sepharose was suspended in 10 mM Tris buffer (pH 7.4, TBS) including […] and the resultant matter was filled in a miniature column (φ2 mm×10 mm, 31.4 μl).
Frontal affinity chromatography was performed using FAC automatic analysis apparatus (FAC-1, SHIMADZU CORPORATION). In particular, the above-prepared lectin column was inserted to a stainless steel holder and the holder was connected to FAC-1 apparatus. The flow rate and the column temperature were maintained at 0.125 ml/min and 25 degrees C., respectively. After the miniature column was equilibrated by the TBS, an excessive volume (0.5 ml to 4 ml) of a PA sugar chain (3.75 nM or 7.5 nM) was continuously inputted to the column using an automatic sampling apparatus.
The fluorescent strength of the eluate of the PA sugar (excitation wavelength of 310 nm and fluorescence wavelength of 380 nm) was monitored to measure the interaction strength [a difference of the front end eluate to the standard oligosaccharide (PA rhamnose): V−V0]. […]

In the case of “Aspergillus oryzae lectin [AOL, reference compound]”, the “association constant Ka” value (Sugar chain No. 001) is reported as <1000 M⁻¹, the “association constant Ka” value (Sugar chain No. 002) is reported as <1000 M⁻¹ and the “association constant Ka” value (Sugar chain No. 003) is reported as <1000 M⁻¹. The “association constant Ka” value (Sugar chain No. 004) was <1000 M⁻¹, the “association constant Ka” value (Sugar chain No. 005) was 7300 M⁻¹ and the “association constant Ka” value (Sugar chain No. 006) was <1000 M⁻¹. The “association constant Ka” value (Sugar chain No. 007) was <1000 M⁻¹, the “association constant Ka” value (Sugar chain No. 008) was 69000 M⁻¹ and the “association constant Ka” value (Sugar chain No. 009) was <1000 M⁻¹. The “association constant Ka” value (Sugar chain No. 010) was <1000 M⁻¹, the “association constant Ka” value (Sugar chain No. 011) was <1000 M⁻¹ and the “association constant Ka” value (Sugar chain No. 012) was <1000 M⁻¹. For the same substance, the “association constant Ka” value (Sugar chain No. 013) was <1000 M⁻¹, the “association constant Ka” value (Sugar chain No. 014) was <1000 M⁻¹ and the “association constant Ka” value (Sugar chain No. 101) was <1000 M⁻¹. The “association constant Ka” value (Sugar chain No. 103) was <1000 M⁻¹, the “association constant Ka” value (Sugar chain No. 104) was <1000 M⁻¹ and the “association constant Ka” value (Sugar chain No. 105) was <1000 M⁻¹. For the same substance, the “association constant Ka” value (Sugar chain No. 107) was <1000 M⁻¹, the “association constant Ka” value (Sugar chain No. 108) was <1000 M⁻¹ and the “association constant Ka” value (Sugar chain No. 301) was 18000 M⁻¹. For the same substance, the “association constant Ka” value (Sugar chain No. 304) was 20000 M⁻¹, the “association constant Ka” value (Sugar chain No. 305) was <1000 M⁻¹ and the “association constant Ka” value (Sugar chain No. 307) was <1000 M⁻¹. The “association constant Ka” value (Sugar chain No. 308) was 20000 M⁻¹, the “association constant Ka” value (Sugar chain No. 313) was <1000 M⁻¹ and the “association constant Ka” value (Sugar chain No. 314) was <1000 M⁻¹. The “association constant Ka” value (Sugar chain No. 323) was <1000 M⁻¹, the “association constant Ka” value (Sugar chain No. 501) was <1000 M⁻¹ and the “association constant Ka” value (Sugar chain No. 502) was <1000 M⁻¹. For the same substance, the “association constant Ka” value (Sugar chain No. 503) was <1000 M⁻¹, the “association constant Ka” value (Sugar chain No. 504) was <1000 M⁻¹ and the “association constant Ka” value (Sugar chain No. 701) was <1000 M⁻¹. For the same substance, the “association constant Ka” value (Sugar chain No. 702) was <1000 M⁻¹, the “association constant Ka” value (Sugar chain No. 703) was <1000 M⁻¹ and the “association constant Ka” value (Sugar chain No. 704) was <1000 M⁻¹. For the same substance, the “association constant Ka” value (Sugar chain No. 705) was <1000 M⁻¹, the “association constant Ka” value (Sugar chain No. 706) was <1000 M⁻¹ and the “association constant Ka” value (Sugar chain No. 707) was <1000 M⁻¹. For the same substance, the “association constant Ka” value (Sugar chain No. 708) was <1000 M⁻¹, the “association constant Ka” value (Sugar chain No. 709) was <1000 M⁻¹ and the “association constant Ka” value (Sugar chain No. 710) was <1000 M⁻¹. The “association constant Ka” value (Sugar chain No. 711) was <1000 M⁻¹, the “association constant Ka” value (Sugar chain No. 712) was <1000 M⁻¹ and the “association constant Ka” value (Sugar chain No. 713) was <1000 M⁻¹. The “association constant Ka” value (Sugar chain No. 715) was <1000 M⁻¹, the “association constant Ka” value (Sugar chain No. 716) was <1000 M⁻¹ and the “association constant Ka” value (Sugar chain No. 717) was <1000 M⁻¹. The “association constant Ka” value (Sugar chain No. 724) was <1000 M⁻¹, the “association constant Ka” value (Sugar chain No. 725) was <1000 M⁻¹ and the “association constant Ka” value (Sugar chain No. 728 (as listed in Table 7)) was <1000 M⁻¹. The “association constant Ka” value (Sugar chain No. 732) was <1000 M⁻¹, the “association constant Ka” value (Sugar chain No. 733) was <1000 M⁻¹ and the “association constant Ka” value (Sugar chain No. 734) was <1000 M⁻¹. The “association constant Ka” value (Sugar chain No. 735) was <1000 M⁻¹, the “association constant Ka” value (Sugar chain No. 736) was <1000 M⁻¹ and the “association constant Ka” value (Sugar chain No. 737) was <1000 M⁻¹. For the same substance, the “association constant Ka” value (Sugar chain No. 738) was <1000 M⁻¹, the “association constant Ka” value (Sugar chain No. 901) was <1000 M⁻¹ and the “association constant Ka” value (Sugar chain No. 902) was <1000 M⁻¹. The “association constant Ka” value (Sugar chain No. 903) was <1000 M⁻¹, the “association constant Ka” value (Sugar chain No. 905) was <1000 M⁻¹ and the “association constant Ka” value (Sugar chain No. 906) was <1000 M⁻¹. The “association constant Ka” value (Sugar chain No. 907) was <1000 M⁻¹.
